Earlier results as cited in patent US12329730B2, “Thermoresponsive hydrogel containing polymer microparticles for controlled drug delivery” (UNIVERSITY OF PITTSBURGH—OF THE COMMONWEALTH SYSTEM OF …, priority 2017, dated 2025).
≈ marks a conversion by molar mass, not a printed value.

Tested on: Streptococcus pneumoniae and Haemophilus influenzae
Conditions: Jacobs et al. 1999

O=C(O)c1cn(C2CC2)c2cc(N3CCNCC3)c(F)cc2c1=O [ciprofloxacin]
minimum inhibitory concentration (MIC): 2 µg/mL (≈ 6.04 µM)
